From US11020494B2, “Animal models for nonalcoholic fatty liver disease” (CROWN BIOSCIENCE INC. (TAICANG), priority 2017, dated 2021)

Tests used:
FATZO mice [1] = assay: Effect of leptin on food intake in FATZO mice; format: in vivo, mouse; settings: leptin 10 mg/kg, first 4 hours of darkness
Procedure: Two age groups of male FATZO mice were selected for leptin levels and the effect of leptin on food intake. Additional age matched groups of C57BL/6 were bled for leptin levels. Animals were acclimated to reverse light cycle for 7 days before being put on protocol. […] Serum was prepared from tail blood and leptin levels were analyzed (Meso Scale Discovery, K152BYC, Rockville, Md., USA). After blood collection, animals were given saline or leptin injections (10 mg/kg) and food intake data was recorded for the first 4 hours of darkness.

FATZO mice [2] = settings: for serum glucose concentrations in the fed state: after 8 weeks, vehicle 315.6±35.4; for serum glucose concentrations in the fed state / body weight change over the 8-week observation period: rosiglitazone 10 mg/kg/day, metformin 150 mg/kg/day; for body weight change over the 8-week observation period: oral once daily 8 weeks, vehicle 1.8±0.2
Procedure: Male FATZO mice (9 weeks of age, n=40) were maintained on Purina 5008 regular rodent chow and reverse osmosis water ad libitum. Mice were housed 3 per cage and acclimated to study environment for 7 days prior to study. At 10 weeks of age, mice were fasted for 6 hours, body weight was recorded and an OGTT performed. Glucose and insulin were assayed at 0, 30, 60, 90, 120 and 180 minutes following a 2 g/kg glucose load. Glucose concentrations were obtained from StatStrip glucometer and insulin was assayed at each time-point using the insulin kit mentioned above. Insulin sensitivity index (ISI) was calculated using a formula modified from Matsuda and DeFronzo [39] by changing the numerator to 10,000 and using glucose and insulin AUCs instead of average glucose and insulin levels ([…]/square root of [fasting glucose x fasting insulin]×[glucose AUC×insulin AUC during OGTT]).
Animals were randomized into 3 groups of 10 based on baseline ISI and body weight. […] Compounds were administered orally once daily by gavage for 8 weeks. Body weight was recorded weekly.
Following 8 weeks of treatment, OGTT was repeated one hour after compound administration. Whole blood was taken from tail clip and processed to serum. Treatment effects on glucose disposal, fed serum glucose, HbAlc, and ISI were compared to vehicle.

[3] = after 8 weeks of administration, compared to vehicle

| Compound | food intake after leptin injection (FATZO mice [1]; FATZO at 10 weeks of age) | food consumption after leptin injection (FATZO mice [1]; young FATZO animals (5 weeks)) | serum glucose concentrations in the fed state (FATZO mice [2]) | body weight change over the 8-week observation period (FATZO mice [2]) | AUC for glucose during OGTT (FATZO mice [2]; [3]) | calculated insulin sensitivity index (ISI) (FATZO mice [2]; [3]) | insulin AUC during OGTT (FATZO mice [2]; [3]) |
| --- | --- | --- | --- | --- | --- | --- | --- |
| leptin | no significant reduction | significantly reduced |  |  |  |  |  |
| CN(CCOc1ccc(CC2SC(=O)NC2=O)cc1)c1ccccn1 (stereo not drawn) [rosiglitazone] |  |  | 233.3 ± 7.7 mg/dL | 5.3 ± 0.7 g |  |  |  |
| CN(C)C(=N)N=C(N)N [metformin] |  |  | 250.0 ± 12.8 mg/dL | -0.2 ± 0.6 g | significant reductions | significant improvements | significant improvements |
